Source: US11649245B2, “Cyclopropylamine compound as LSD1 inhibitor and use thereof” (HELIOEAST PHARMACEUTICAL CO., LTD., priority 2018, dated 2023)
Structures can show the parent of a compound that is named as a salt.

Key:
[1] = target: T1, hERG potassium ion channel (Homo sapiens, UniProt Q12809); assay: Inhibition test for hERG potassium ion channel (automatic patch-clamp, CHO-hERG cells); type: cell-based; details: Qpatch, highest test concentration 40 μM
T1 construct: expressed in transfected cells; host or cells: CHO-hERG cells
T1 sequence (Q12809 whole entry): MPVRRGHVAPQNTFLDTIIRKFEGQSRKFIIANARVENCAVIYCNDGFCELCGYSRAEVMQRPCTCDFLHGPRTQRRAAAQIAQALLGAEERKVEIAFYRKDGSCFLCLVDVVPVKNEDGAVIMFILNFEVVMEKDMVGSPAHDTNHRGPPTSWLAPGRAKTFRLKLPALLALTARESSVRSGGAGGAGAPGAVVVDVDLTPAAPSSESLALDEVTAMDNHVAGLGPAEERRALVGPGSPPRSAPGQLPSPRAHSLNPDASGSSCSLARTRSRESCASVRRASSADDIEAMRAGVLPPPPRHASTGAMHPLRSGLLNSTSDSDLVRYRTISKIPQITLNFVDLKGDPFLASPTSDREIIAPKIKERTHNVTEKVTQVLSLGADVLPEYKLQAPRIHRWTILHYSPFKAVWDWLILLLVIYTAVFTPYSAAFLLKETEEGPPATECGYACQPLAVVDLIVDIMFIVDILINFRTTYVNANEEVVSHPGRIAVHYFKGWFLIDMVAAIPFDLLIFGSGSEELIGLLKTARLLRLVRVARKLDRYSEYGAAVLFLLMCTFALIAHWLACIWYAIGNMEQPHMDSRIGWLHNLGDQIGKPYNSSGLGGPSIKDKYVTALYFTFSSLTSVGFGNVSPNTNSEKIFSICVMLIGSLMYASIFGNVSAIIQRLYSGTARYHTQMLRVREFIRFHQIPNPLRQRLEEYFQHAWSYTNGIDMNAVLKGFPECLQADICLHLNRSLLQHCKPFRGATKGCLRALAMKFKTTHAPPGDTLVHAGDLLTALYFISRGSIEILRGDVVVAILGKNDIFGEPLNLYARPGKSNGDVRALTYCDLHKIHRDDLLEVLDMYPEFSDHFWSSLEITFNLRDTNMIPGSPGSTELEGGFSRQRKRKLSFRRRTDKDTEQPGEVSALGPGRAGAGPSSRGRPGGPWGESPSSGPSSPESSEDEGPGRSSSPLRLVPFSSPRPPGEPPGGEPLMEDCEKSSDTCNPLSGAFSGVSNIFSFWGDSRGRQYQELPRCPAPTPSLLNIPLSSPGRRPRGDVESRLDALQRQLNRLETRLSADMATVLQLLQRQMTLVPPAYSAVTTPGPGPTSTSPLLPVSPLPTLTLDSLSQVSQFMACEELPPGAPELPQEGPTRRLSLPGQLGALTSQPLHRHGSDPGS
Method: Experimental purpose: to detect the effect of the embodiments to be tested on the potassium ion channel of hERG by using the fully automatic patch-clamp method.
6.1.1 CHO-hERG cells were cultured in a 175 cm^2 culture flask, after the cell density was increased to 60-80%, the culture medium was removed, the cells were washed once with 7 mL PBS (Phosphate Buffered Saline), and then 3 mL digestive fluid was added for digestion.
6.1.2 After the digestion was complete, 7 mL of culture medium was added for neutralization, then the mixture was centrifuged, the supernatant was aspirated, and then 5 mL of culture medium was added for resuspention to ensure that the cell density was 2-5×10^6/mL.
The single-cell high-impedance sealing and the whole-cell mode formation process were all automatically completed by the Qpatch instrument of the Shanghai Institute of Materia Medica, Chinese Academy of Sciences. After the whole-cell recording mode was obtained, the cells were clamped at −80 millivolts. […] The data were recorded for 2 minutes, then extracellular fluid was administrated, and then the data were recorded for 5 minutes. […]
The experimental data were analyzed by XLFit software.

[2] = tested on: HL60 cells; assay: Antiproliferation activity on HL60 cells (CellTiter-Glo, 6 days); type: cell-based; details: incubated for 6 days
Description: Experimental purpose: to detect the antiproliferation activity of the compound to be tested on HL60 cells.
(§1) Experimental materials: RPMI-1640 culture medium, fetal bovine serum, penicillin/streptomycin antibiotics purchased from Wisent. CellTiter-Glo (chemiluminescent cell viability assay reagent) reagents purchased from Promega. HL60 cell line purchased from Nanjing Cobioer Co., Ltd. Nivo multi-label reader (PerkinElmer).
Experimental method: HL60 cells were planted in a white 384-well plate, 40 μL of cell suspension per well, 600 HL60 cells were contained therein. The cell plate was placed in a carbon dioxide incubator for overnight culture. The compounds to be tested were diluted 5-fold with a pipet until the 10th concentration, i.e., diluted from 2 mM to 1.024 nM, double duplicate well experiment was set. 78 μL of the culture medium was added to an intermediate plate, and then 2 μL per well of the serially diluted compounds were transferred to the corresponding positions on the intermediate plate, after mixing, 10 μL per well was transferred to the cell plate. The cell plate was incubated in a carbon dioxide incubator for 6 days. Another cell plate was prepared and the signal value on the day of dosing was read as the maximum value (Max value in the equation below) to participate in the data analysis. 20 μL of chemiluminescent cell viability assay reagent was added to each well of this cell plate, which was incubated at room temperature for 10 minutes to stabilize the luminescence signal. The multi-label reader was used for reading.
(§2) Data analysis: the equation (Sample-Min)/(Max-Min)*100% was used to convert the original data into the inhibition rate, the IC50 value can be obtained by curve fitting of four-parameters (“log(inhibitor) vs. response—Variable slope” mode in GraphPad Prism)).

[3] = tested on: MV-4-11 cells; assay: Antiproliferation activity on MV-4-11 cells (CellTiter-Glo, 6 days); type: cell-based; details: incubated for 6 days
Description: Experimental purpose: to detect the antiproliferation activity of the compound to be tested on MV-4-11 cells.
as §1, with “IMDM” for “RPMI-1640”, “MV-4-11” for “HL60”, “line was” for “line”, “Multi-Marker Analyzer” for “multi-label reader”
Experimental method: MV-4-11 cells were planted in a white 96-well plate, 80 μL of cell suspension per well, which contained 6000 MV-4-11 cells. The cell plate was placed in a carbon dioxide incubator for overnight culture.
The compounds to be tested were diluted 5-fold with a pipet until the 8th concentration, i.e., diluted from 2 mM to 25.6 nM, double duplicate well experiment was set. 78 μL of the culture medium was added to an intermediate plate, and then 2 μL per well of the serially diluted compounds were transferred to the corresponding positions on the intermediate plate, after mixing, 20 μL per well was transferred to the cell plate. The cell plate was incubated in a carbon dioxide incubator for 6 days. Another cell plate was prepared and the signal value on the day of dosing was read as the maximum value (Max value in the equation below) to participate in the data analysis. 25 μL of the chemiluminescent cell viability assay reagent was added to each well of this cell plate, which was incubated at room temperature for 10 minutes to stabilize the luminescence signal. The multi-label analyzer was used for reading.
as §2

[4] = target: human LSD1 (Homo sapiens, UniProt O60341); assay: In vitro enzyme activity screening against LSD1 (HRP/Amplex Red fluorescence coupling enzyme method); type: biochemical; details: human LSD1, histone H3K4me peptide substrate 20 μM
Method: The purpose of this test was to detect the in vitro inhibitory activity of the compounds against LSD1. The enzyme used in this test was human LSD1, the standard substrate was histone H3K4me peptide (20 μM), the fluorescence coupling enzyme method was used to determine the activity of the compound by combining horseradish peroxidase (HRP) and fluorescent reagent Amplex Red to detect the H2O2 generation as a result of the reaction of LSD1. Compounds were tested in 10-dose IC50 mode with a 3-fold serial dilution starting at 10 μM. The enzyme and […] to start the reaction. Fluorescence detector: Envision, excitation wavelength: Ex/Em=530/590 […]

O=C(O)c1ccc(CN2CCC3(CC2)CC(N[C@@H]2C[C@H]2c2ccccc2)CO3)cc1 (stereo partly shown) [Hydrochloride of the compound 6]
IC50 [1]: > 40000 nM
IC50 [2]: 14.7 nM
IC50 [3]: 3.21 nM
IC50 [4]: 329 nM
